Source: ChEMBL document CHEMBL4602671, “Modified Eremophilanes from Parasenecio hastatus and Their Neuroprotective Activities” (J Nat Prod, 2020)
Activity calls are given as the source filed them. The rule behind the calls is not given here.

Columns and labels:
SH-SY5Y [1] = assay: Neuroprotective activity in human SH-SY5Y cells assessed as reduction in H2O2-induced cell death at 100 uM preincubated for 1 hr followed by H2O2 addition and measured after 4 hrs by MTT assay; assay type: functional, cell-based
SH-SY5Y [2] = assay: Neuroprotective activity in human SH-SY5Y cells assessed as reduction in H2O2-induced cell death at 10 uM preincubated for 1 hr followed by H2O2 addition and measured after 4 hrs by MTT assay; assay type: functional, cell-based
SH-SY5Y [3] = assay: Neuroprotective activity in human SH-SY5Y cells assessed as reduction in H2O2-induced cell death at 1 uM preincubated for 1 hr followed by H2O2 addition and measured after 4 hrs by MTT assay relative to control; assay type: functional; set-up: scale not given: the % may be the effect or the level left
SH-SY5Y [4] = assay: Cytotoxicity against human SH-SY5Y cells at 100 uM; assay type: cell-based

SMILES | Activity (SH-SY5Y [1]) | Activity (SH-SY5Y [2]) | Activity (SH-SY5Y [3]) | Activity (SH-SY5Y [4])
COc1c2c(c(C)c3c(C)coc13)[C@H](CO)[C@H](O)C=C2 | Active | Active | >10% | 
C/C=C(/C)C(=O)OC[C@H]1c2c(c(OC)c3occ(C)c3c2C)C=C[C@H]1OC | Active | Active | >10% | 
COc1c(O)c(C(C)=O)c(C)c2c(C)cccc12 | Active | Active | inactive | 
COc1c2c(c(C)c3c(C)coc13)[C@@H](C)[C@@H](O)C=C2 | Active | Active | >10% | 
Cc1coc2c1[C@](C)(O)c1c(ccc(O)c1C)C2=O |  | Active | Active | Toxic
COc1c(O)c(C(C)=O)c(C)c2c1C=C[C@H](O)[C@@H]2C | Active | Active | inactive | 
COc1c2c(c(C)c3c(C)coc13)[C@@H](C)[C@@H](O)CC2 | Active | Active | inactive | 
Cc1cccc2c1C(=O)c1c(C)coc1C2=O | Active | Active | inactive | 
COC[C@@]1(O)c2c(C)cccc2C(=O)c2occ(C)c21 |  |  | Active | Toxic
COc1c2cccc(C)c2cc2c(C)coc12 | Active | Active | inactive | 
CCOCc1c2c(C)cccc2c(OC)c2occ(C)c12 | Active | Active | inactive | 
COc1c(O)c(C(C)=O)c(C)c2c1C=CC[C@@H]2C | Active | Active | inactive | 
C/C=C(/C)C(=O)OCc1c(C(C)=O)c(O)c(OC)c2c1[C@@H](C)[C@@H](O)C=C2 | Active | Active | inactive | 
Cc1cccc2c1[C@@](C)(O)c1c(C)coc1C2=O |  | Active | Active | Toxic
COc1c2cccc(C)c2c(C)c2c(C)coc12 | Active | Active | >10% | 
C/C=C(/C)C(=O)OC[C@@H]1c2c(c(OC)c3occ(C)c3c2C)C=C[C@@H]1O | Active | Active | >10% | 
COc1c2cccc(C)c2c(CO)c2c(C)coc12 | Active | Active | inactive | 
Cc1c(C)c2c(c(C)c1O)CCC(C)(C(=O)O)O2 (stereo not given) |  |  | inactive | 
COC[C@H]1c2c(c(OC)c3occ(C)c3c2C)C=C[C@H]1O | Active | Active | >10% | 
COCc1c2c(C)cccc2c(OC)c2occ(C)c12 | Active | Active | >10% | 
COc1c2c(c(C)c3c(C)coc13)[C@@H](C)[C@@H]1O[C@@H]1[C@H]2O | Active | Active | inactive | 
